The source of these data is US6696461B2, “Tricyclic imidazopyridines” (Altana Pharma AG, priority 2000, dated 2004).

The structures appear in SMILES notation.

In data set [1] the test system is pentagastrin-stimulated acid secretion of the perfused rat stomach. The data set is described as follows: Secretion-inhibiting action on the perfused rat stomach (pentagastrin-stimulated acid secretion, i.v. administration in vivo). Conditions: anesthetized CD rat, dose 3 μmol/kg i.v. An excerpt: Testing of the Secretion-inhibiting Action on the Perfused Rat Stomach
In Table A which follows, the influence of the compounds according to the invention on the pentagastrin-stimulated acid secretion of the perfused rat stomach after intravenous administration in vivo is shown.
The abdomen of anesthetized rats (CD rat, female, 200-250 g; 1.5 g/kg i.m. urethane) was opened after tracheotomy by a median upper abdominal incision and a PVC catheter was fixed transorally in the esophagus and another via the pylorus such that the ends of the tube just projected into the gastric lumen. The catheter leading from the pylorus led outward into the right abdominal wall through a side opening.
After thorough rinsing (about 50-100 ml), warm (37° C.) physiological NaCl solution was continuously passed through the stomach (0.5 ml/min, pH 6.8-6.9; Braun-Unita 1). The pH (pH meter 632, glass electrode EA 147; φ=5 mm, Metrohm) and, by titration with a freshly prepared 0.01N NaOH solution to pH 7 (Dosimat 665 Metrohm), the secreted HCl were determined in the effluent in each case collected at an interval of 15 minutes.
The gastric secretion was stimulated by continuous infusion of […] (=1.65 ml/h) of i.v. pentagastrin (left femoral vein) about 30 min after the end of the operation (i.e. after determination of 2 preliminary fractions). […]

As to `COCc1cn2c(C)c(C)nc2c2c1[C@H](OC)[C@H](O)[C@@H](c1ccccc1)N2` [Example 17, (7S,8R,9R)-8-Hydroxy-7-methoxy-6-methoxymethyl-2,3-dimethyl-9-phenyl-7,8,9,10-tetrahydroimidazo[1,2-h][1,7]naphthyridine], the melting point was 126 to 129 °C (dec.). The “Inhibition of acid secretion” value in data set [1] worked out at 100%. Take `COCc1cn2c(C)c(C)nc2c2c1[C@H](O)[C@H](O)[C@@H](c1ccccc1)N2` [Example 15, (7S,8R,9R)-7,8-Dihydroxy-6-methoxymethyl-2,3-dimethyl-9-phenyl-7,8,9,10-tetrahydroimidazo[1,2-h][1,7]naphthyridine]: the melting point is 182 to 183 °C (dec.). The molecule `COCCO[C@@H]1c2c(COC)cn3c(C)c(C)nc3c2N[C@H](c2ccccc2)[C@H]1O` [Example 19, (7R,8R,9R)-8-Hydroxy-7-(2-methoxyethoxy)-6-methoxymethyl-2,3-dimethyl-9-phenyl-7,8,9,10-tetrahydroimidazo[1,2-h][1,7]naphthyridine] came in with a melting point of 158 to 160 °C. In the case of `COCCO[C@H]1c2c(COC)cn3c(C)c(C)nc3c2N[C@H](c2ccccc2)[C@H]1O` [Example 20, (7S,8R,9R)-8-Hydroxy-7-(2-methoxyethoxy)-6-methoxymethyl-2,3-dimethyl-9-phenyl-7,8,9,10-tetrahydroimidazo[1,2-h][1,7]naphthyridine], the melting point was 158 to 160 °C (dec.). For `CCO[C@@H]1c2c(COC)cn3c(C)c(C)nc3c2N[C@H](c2ccccc2)[C@H]1O` [Example 21, (7R,8R,9R)-8-Hydroxy-7-ethoxy-6-methoxymethyl-2,3-dimethyl-9-phenyl-7,8,9,10-tetrahydroimidazo[1,2-h][1,7]naphthyridine], the melting point was 184 to 186 °C (dec.).

For the molecule `CCO[C@H]1c2c(COC)cn3c(C)c(C)nc3c2N[C@H](c2ccccc2)[C@H]1O` [Example 22, (7S,8R,9R)-8-Hydroxy-7-ethoxy-6-methoxymethyl-2,3-dimethyl-9-phenyl-7,8,9,10-tetrahydroimidazo[1,2-h][1,7]naphthyridine], the melting point is 163 to 164 °C (dec.).

Broadly, the melting point is the temperature of the solid-liquid transition.
